From paper PMC12610274, “Identification of Marrubiin as a Cathepsin C Inhibitor for Treating Rheumatoid Arthritis” (Molecules, 2025)

Assays:
intracellular CTSC = target: T1, intracellular CTSC (Homo sapiens, UniProt P53634); experiment: CTSC cell-based assay using the U937 cell line; conditions: read-out: Cell-Based Enz (IC50: nM)
T1 construct: endogenous in cells; host or cells: U937
Protocol: Cell-based CTSC enzymatic activity assays were performed in 96-well clear-bottom black microplates. […] The detection substrate, H-Gly-Arg-AFC, was diluted to 100 µM in serum-free medium and stored for later use. U937 cells in the logarithmic growth phase were harvested, washed with PBS, and counted. A single-cell suspension was prepared at a density of 1.0 × 10^6 cells/mL using serum-free medium. 30 µL of cell suspension was seeded into each well of the 96-well plate. To the test wells, 10 µL of the compound working solution was added, while 10 µL of serum-free medium was added to the control wells. The plate was pre-incubated in a cell culture incubator at 37 °C for 3 h. Subsequently, 10 µL of H-Gly-Arg-AFC was added to initiate the enzymatic reaction, and the plate was further incubated at 37 °C for 1 h. Fluorescence measurements were performed using a multimode microplate reader at excitation/emission wavelengths of 400/505 nm. Each group of tests was independently repeated at least 3 times, and IC50 values were calculated using SPSS 10.0.

[1] = Cytotoxicity assay, U937 cell line; assay type: cell-based; conditions: human, U937 cells
Protocol: (§1) RAW264.7 cells and U937 cells in the logarithmic growth phase were counted and diluted, and the concentrations of the single-cell suspensions of the two types of cells were adjusted to 5 × 10^4 cells/mL and 3 × 10^4 cells/mL, respectively. After thorough mixing, the cells were seeded into a 96-well plate, with 100 μL of cell suspension added to each well. Prepare the working solution of test compounds using the corresponding medium as the solvent, with the concentration of working solution being 2 times the final test concentration (2.5 μM, 5 μM, 10 μM, 20 μM, and 40 μM). Twenty-four hours after cell seeding, the compound working solutions were added to the compound test wells, and the same volume of medium was added to the negative control wells, followed by continuous incubation for another 24 h. Only the wells with the same volume but without cells served as the blank control group. The CellTiter-Lumi™ luminescent cell viability assay kit (Beyotime Biotechnology, Shanghai, China, C0065XL) was used to detect cell viability according to the standard operating procedures. Each group of tests was independently repeated at least 3 times, and IC50 values were calculated using SPSS 10.0.

[2] = Cytotoxicity assay, RAW264.7 cell line; assay type: cell-based; conditions: mouse, RAW264.7 cells
Protocol: as §1

CTSC = CTSC (Homo sapiens, UniProt P53634); experiment: Human recombinant CTSC isolated enzyme assay; assay type: biochemical; set-up: purchased R&D Systems; conditions: human recombinant CTSC, cell-free, 12-point dose-response; read-out: CTSC Enz (IC50: nM)
Protocol: Both recombinant CTSL and CTSC for in vitro cell-free-based enzymatic activity assay can be purchased from R&D Systems (Minneapolis, MN, USA), a biotechnology company. According to the standardized procedures and material ratios provided by R&D Systems, prepare the activation solution (25 mM MES + 5 mM DTT, pH 6.0) and the assay solution (25 mM MES + 50 mM NaCl + 5 mM DTT, pH 6.0) in advance for later use. Dilute the detection substrate H-Gly-Arg-AMC to a 200 µM solution with the assay solution for standby. Prepare the working solution of compounds to be tested using the assay solution, with the concentration of working solution being 10 times the final test concentration. Dilute CTSC and CTSL, respectively, with cold activation solution. Thoroughly mix the two activation solutions containing the proteins to achieve final concentrations of 300 nM for CTSL and 440 nM for CTSC. After co-incubation for 1 h, the activated CTSC treated with CTSL can be used for the enzymatic activity inhibition efficacy test of compounds. Dilute the activated CTSC to 4.4 nM with cold assay buffer. Incubate 4 μL of the activated CTSC with 1 μL of the compound working solution (test group) or 1 μL of blank assay solution (control group) at room temperature for 3 h. Then, add 5 μL of the detection substrate to achieve a final concentration of 100 μM. Mix 5 µL each of the assay solution and the substrate solution as the blank group. After 1 h, the absorbance of detection substrate was measured using a multifunctional microplate reader at excitation/emission wavelengths of 380 nm/460 nm. The inhibitory efficacy of molecules on enzyme activity was calculated based on the absorbance difference between test group and control group. […] Each group of tests mentioned above was independently repeated at least 3 times, and IC50 values were calculated using SPSS 10.0.

Sequence of CTSC (P53634 25-134 limits assumed): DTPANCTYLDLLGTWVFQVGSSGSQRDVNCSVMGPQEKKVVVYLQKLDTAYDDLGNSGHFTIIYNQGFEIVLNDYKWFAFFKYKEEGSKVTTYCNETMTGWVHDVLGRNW
Sequence of CTSC (P53634 231-394 limits assumed): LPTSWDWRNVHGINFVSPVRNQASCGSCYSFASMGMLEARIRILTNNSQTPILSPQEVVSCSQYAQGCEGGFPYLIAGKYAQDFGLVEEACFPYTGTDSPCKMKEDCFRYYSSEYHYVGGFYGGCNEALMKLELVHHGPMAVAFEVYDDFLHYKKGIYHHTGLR
Sequence of CTSC (P53634 395-463 limits assumed): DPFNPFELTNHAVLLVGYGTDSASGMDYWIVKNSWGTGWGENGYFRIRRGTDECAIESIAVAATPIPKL
T1 sequence (P53634 25-463): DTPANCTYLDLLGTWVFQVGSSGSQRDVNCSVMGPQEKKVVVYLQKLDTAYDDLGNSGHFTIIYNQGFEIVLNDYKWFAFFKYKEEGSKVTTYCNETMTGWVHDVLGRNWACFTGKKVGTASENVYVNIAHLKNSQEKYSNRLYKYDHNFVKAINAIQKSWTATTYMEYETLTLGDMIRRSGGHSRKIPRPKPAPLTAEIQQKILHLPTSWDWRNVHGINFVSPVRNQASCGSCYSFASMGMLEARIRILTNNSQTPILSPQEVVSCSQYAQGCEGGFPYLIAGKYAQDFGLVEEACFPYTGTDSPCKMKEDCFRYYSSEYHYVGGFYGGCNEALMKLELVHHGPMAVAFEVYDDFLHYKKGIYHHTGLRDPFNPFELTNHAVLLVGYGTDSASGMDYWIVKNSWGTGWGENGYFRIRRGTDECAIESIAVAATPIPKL

Compound | IC50 (intracellular CTSC) | IC50 at 24 h [1] | IC50 at 24 h [2] | IC50 (CTSC)
N[C@H]1CONC1=O [L-Cycloserine, L-cycloserine] | > 5000 nM | > 10 µM | > 10 µM | 1101 ± 2 nM
CC1(C)CC[C@]2(C(=O)O)[C@H](O)C[C@]3(C)C(=CC[C@@H]4[C@@]5(C)CC[C@H](O)[C@@](C)(C=O)[C@@H]5CC[C@]43C)[C@@H]2C1 [Quillaic acid, quillaic acid] | > 5000 nM | > 10 µM | > 10 µM | 125 ± 2.9 nM
CN1C2CC(O)CC1C1OC12 (stereo not drawn) [Scopine, scopine] | 337 ± 1.8 nM | > 10 µM | > 10 µM | 135 ± 4.7 nM
